Assay results reported in PubChem BioAssay AID512.

target: Carbonyl reductase [NADPH] 3 (Homo sapiens) (UniProt O75828); assay: CBR3 binders by thermal stabilization, biophysical, DSF, SYPRO orange, recombinant protein (AID 512); details: at 10 µM, buffer 10 mM HEPES, pH 7.5, NaCl 150 mM, NADP 100 µM, protein 2 µM, stronger effect = higher value
Sequence (O75828 whole entry, looked up): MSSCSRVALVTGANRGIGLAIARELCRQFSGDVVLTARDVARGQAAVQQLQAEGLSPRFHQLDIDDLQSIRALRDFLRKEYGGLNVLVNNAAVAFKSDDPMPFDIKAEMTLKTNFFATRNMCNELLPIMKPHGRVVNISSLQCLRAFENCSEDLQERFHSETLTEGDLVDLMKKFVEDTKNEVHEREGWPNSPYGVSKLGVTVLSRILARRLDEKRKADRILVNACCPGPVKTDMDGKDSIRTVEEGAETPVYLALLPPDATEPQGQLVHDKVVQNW

Row | Tm shift [Celsius] | Structure (SMILES)
1 | 2.4 | Cc1ccc2c(c1)=C(c1[nH]c(=S)[nH]c1O)C(=O)N=2
2 | 2.1 | Brc1ccc(-c2[nH]c(-c3c[nH]c4ccccc34)nc2-c2ccccc2)cc1
3 | 3.1 | COc1cc(/C=C/C(=O)CC(=O)/C=C/c2ccc(O)c(OC)c2)ccc1O

same assay, conditions: at 10 µM, buffer 10 mM HEPES, pH 7.5, NaCl 150 mM, protein 2 µM, stronger effect = higher value

Row | Tm shift [Celsius] | Structure (SMILES)
4 | 2.2 | O=C1C(=O)C(c2ccc(O)cc2O)Oc2cc(O)cc(O)c21 (centres undefined)
5 | 2.5 | CCN(CC)C(=S)SSC(=S)N(CC)CC
6 | 4.4 | NC(=O)c1ccc[n+](C2OC(COP(=O)(O)OP(=O)(O)OCC3OC(n4cnc5c(N)ncnc54)C(OP(=O)(O)O)C3O)C(O)C2O)c1 (centres undefined)
7 | 2.1 | O=C1C(=O)C(c2ccc(O)cc2)Oc2cc(O)cc(O)c21 (centres undefined)
8 | 3.1 | O=c1oc2cc(O)ccc2c2oc3cc(O)ccc3c12

same assay, conditions: measured here: second experiment Tm shift, at 10 µM, run 2, buffer 10 mM HEPES, pH 7.5, NaCl 150 mM, NADP 100 µM, protein 2 µM, stronger effect = higher value

Row | Tm shift [Celsius] | Structure (SMILES)
9 | 2.4 | COc1cc(/C=C/C(=O)CC(=O)/C=C/c2ccc(O)c(OC)c2)ccc1O
